One substance from US7265091B2, “Methods and compositions for treating male erectile dysfunction” (The Regents of the University of California, priority 2000, dated 2007) can be followed below.

“And” between values parts separate entries of the source, which are not always exact repeats. Equal values may be shown once.

Assay [1] concerns cavernous smooth muscle cells (CSMC). Particulars: 4 hr.
Description: Primary aorta SMC cultures were prepared similarly with aortas isolated from 16-week-old male rats.
Cell migration assays were performed in 6.5-mm Transwell chambers of Corning Costar Corporation (Cambridge, Mass.). The Transwell inserts (upper chambers) were bathed in a solution containing 13.4 μg/ml fibronectin in PBS at 37° C. for 1 hr and allowed to air-dry. The dried upper chambers were then placed in the lower chambers, each of which contained 700 μl of serum-free DMEM supplemented with 0.1% BSA and 0 to 500 ng/ml of VEGF. SMC that had been grown to 70% confluence were further conditioned in serum-free DMEM (containing 0.1% BSA) for 2 hr and then trypsinized. The trypsinized cells were washed in PBS and resuspended at a concentration of 80,000 cells per ml in serum-free DMEM (containing 0.1% BSA). One hundred μl of the cell suspension was then added to each upper chamber. After 4 hr of incubation at 37° C., all liquid in the upper and lower chambers was removed by aspiration. The membranes in the upper chambers were subsequently fixed in 1% buffered formalin for 5 min and stained with 2% crystal violet. Non-migratory cells on the upper side of the membranes were scraped off with cotton swabs. Well locations were marked on the membranes and total cells per well were counted visually in a masked fashion. Well locations were then correlated with the concentrations of VEGF in the wells. […]
Assay [2] shares this test system. As to conditions: CSMC from rats of all ages, three days, serum-free medium.
Description: (§1) Each primary culture of CSMC was prepared from the corpora cavernosa of 2-3 rats by the following procedure. The penis was cleared of the urethra, blood vessels, fat and connective tissue. The remaining smooth muscle tissue was washed 3 times in sterile PBS (phosphate-buffered saline) and cut into 2-3 mm^3 segments. The segments were placed evenly onto a 100-mm cell culture dish (Falcon-Becton Dickinson Labware, Franklin Lakes, N.J.) inside a cell culture hood. Approximately 10 min later, 10 ml of Dulbecco's Modified Eagle Medium (DMEM) containing penicillin (100 units/ml), streptomycin (100 μg/ml), and 10% FBS was carefully pipetted into the dish. The dish was then kept undisturbed in a humidified 37° C. incubator with 5% CO2. Five days later, tissue segments that have detached from the dish were removed, and the medium was replaced with fresh medium. Another 5 days later, all tissue segments were removed and the medium was again replaced with fresh medium. When small islands of cells were noticeable, they were trypsinized and transferred to a fresh culture dish. […]
(§2) Cell proliferation assays were performed with the CellTiter-96 kit from Promega Inc. (Madison, Wis.). […] After 4 hr of further incubation at 37° C. in the humidified, 5% CO2 incubator, color development, which reflects cell numbers, was recorded with a plate reader (Molecular Devices Corp., Sunnyvale, Calif.) at 490-nm absorbance. […]
Assay [3] has as its system dorsal nerve, intracavernosal smooth muscle and endothelium. Particulars: ligated rats, 4 μg of VEGF. As to the method: The penis was dissected, thinly sliced (˜1 mm thick) and placed in Karnovsky's fixative (1% para-formaldehyde/3% glutaraldehyde/0.1 M sodium cacodylate buffer, pH 7.4) at room temperature for 30 minutes and then stored at 4° C. The fixed tissue was then rinsed in buffer, post-fixed in 2% aqueous OsO4, and stained en bloc with uranyl acetate before being dehydrated in ethanol, cleared in propyline oxide, and embedded in eponate 12 (Ted Pella Co., Redding, Calif.). Thick sections were cut and stained with toludine blue, examined under light microscope to select the area to be thin-sectioned. Thin sections were cut by Leica ultracut E microtome (Bannockburn, Ill.), stained with uranyl acetate and Reynold's Lead to enhance contrast and examined under Philips Tecnai 10 electron microscope (Eidhoven, Netherlands).

For assay [4], the system named is major pelvic ganglia (MPG). In words: Nerve fiber outgrowth from cultured major pelvic ganglia. The class given is cell-based, rat. On the set-up: Average fiber length / FIBER LENGTH (average lengths of the growing fibers): unit not given here. As to the method:
Each freshly isolated MPG was cut into 8 pieces of approximately equal size and each piece was then attached to a Matrigel-coated coverslip. The MPG pieces were cultured in serum-free medium supplemented with phosphate-buffered saline (PBS, control), 50 ng/ml of vascular endothelial growth factor (VEGF), 20 ng/ml of brain-derived neurotrophic factor (BDNF), or VEGF+BDNF. After 2 days of incubation, the ganglial tissues with their outgrowing nerve fibers were stained for the expression of NADPH diaphorase and acetylcholinesterase (AchE).
We have been using several experimental systems to test the efficacy of combination growth factor therapies for impotence. One system employs cultured rat major pelvic ganglia (MPG) that are known to innervate all urogenital organs, including the penis. We discovered that the cultured MPG are able to sprout new nerve fibers (nerve regeneration) from the axonal ends during the first 3 days of culture, especially when treated with VEGF, BDNF, NT-3, or NT-4.

Assay [5] concerns VSMC (aorta SMC). Particulars: VSMC from 16-weeks-old rats.
Assay [6] concerns established venogenic erectile dysfunction in castrated rats. As to conditions: castrated rats with venous leak, 1 month following VEGF treatment. As to the method:
These animals (n=8) were treated with intracavernous VEGF protein and then after one month cavernosometry repeated to measure the effect of VEGF treatment.
A 1.5 cm oblique incision was made in the lower abdominal skin extending from the midline just above the penile hilum to below the level of the glans about 1 cm lateral to the midline. The skin was sharply dissected from the anterior surface of the penis and then the penis was retracted anteriorly using a towel clamp placed around it atraumatically with the foreskin left intact. Using blunt dissection the penile base and crura were exposed. The ischiocavernosus muscles were sharply dissected off the anterior surface of the crus until the white of the tunica albuginea of the corpora cavernosa was identified. The crus was then gently cannulated using a 23 gage butterfly needle, and saline flush with a visual erectile response was used to confirm that the needle tip was truly intracavernosal. The intracavernosal injections were then administered with either VEGF protein (Calbiochem, La Jolla, Calif. #676472) at the dosage 4 ug/injection (in 0.1 cc PBS with 0.1% BSA), AAV-VEGF (10^10 viral particles in 0.1 cc NS), AAV-LacZ (10^10 viral particles in 0.1 cc NS), or 0.1 ml NS alone. The AAV-VEGF and AAV-LacZ constructs were a generous gift from Dr. Yuet W. Kan (Howard Hughes Medical Research Institute, San Francisco, Calif.).^19,20 Following injection, the needle was left in place for 5 minutes and then removed to allow the medication to diffuse throughout the cavernosal space. Immediately thereafter, pinpoint electrocautery was applied to the needle hole for hemostasis and then the wound was closed and the animal recovered as above.
To perform pharmacologic cavemosometry, both the right and left crura were separately cannulated using 23 gauge butterfly needles as described above. […] The baseline ICP was recorded (flaccid ICP) and then a dose of papavarine (1 mg in 0.1 cc NS) was administered through the infusion cannula. […] After 5 minutes more, the ICP was again recorded (ICP after papavarine) and the infusion started. […] By slowly adjusting the inflow rate, an intracorporal pressure of 100 cm H2O (erectile pressure) was reached and the infusion rate required to maintain this pressure recorded (the maintenance rate). After this pressure was steady for 20 seconds, the infusion was terminated and the change in ICP over the subsequent 60 seconds was recorded (the drop rate).

Assay [7] relates to Rodent Model of Neurogenic Erectile Dysfunction. As to conditions: VEGF 4 ug intracavernous, three months after bilateral cavernous nerve freezing.
Description: Seventeen 3 months old Sprague Dowry rats underwent bilateral freezing of the cavernous nerves with a thermocouple immersed in liquid nitrogen. Through an abdominal incision both cavernous nerves were isolated lateral to the prostate and frozen with thermocouple for one minute twice (temperature cycle −130° C. to −3° C.). Minutes later, intracavernous injection of saline (n=7) or VEGF, 4 ug, (n=9) was given. Three months later, all rats underwent re-exploration and electrostimulation of the cavernous nerves to assess erectile function. Eight additional rats underwent exploration only (sham group)
Assay [8] has as its system VSMC (aorta SMC). As to conditions: VSMC from 16-weeks-old rats. The source holds these as a separate data set.
Description: as §1, §2
For assay [9], the system named is outgrowing blood vessels in artery-muscle co-culture. Description: Artery-muscle co-culture. It is filed as cell-based. The source says:
We extended our above angiogenesis model to include muscles in a co-culture system. The source of muscle was corpus cavernosum, urethra sphincter, or bladder. […] In addition, the combination of VEGF and PDGF encouraged more extensive contacts between the outgrowing vessels with the muscle. More studies with either single or a combination of other growth factors and the molecular mechanism of vessel growth are currently underway. Once the best growth factor or combinations are identified, we will perform in vivo studies in rats with severe vasculogenic ED to see if the in vitro assay helps identify the best angiogenins.

Where [10] appears, read: 50 ng/ml VEGF, 20 ng/ml BDNF, 2 days of incubation.

As to VEGF, the “VEGF concentration of peak CSMC migration” value in [1] (CSMC from 1-week-old rats) stood at 1 ng/mL. Besides, the “optimal dosage of VEGF for CSMC migration” value in assay [1] (CSMC from young and old rats except 1-week-old) stood at 10 ng/mL. The “optimal dosage of VEGF for CSMC growth rate” value in assay [2] came to 12.5 ng/mL. In [3] (2 and 6-week groups), the “appearance of endothelium of sinusoids and capillaries” value was “endothelial cell hypertrophy and hyperplasia”; the “appearance of intracavernosal smooth muscle cells” value was “most of the smooth muscle cells appeared normal”. Further, in [3] (week 6), the “mean diameter of the myelinated axons, dorsal nerve” value worked out at 6.19±2.38 μm and the “mean diameter of the nonmyelinated axons, dorsal nerve” value was 0.82±0.45 μm. Besides, in assay [4] (setting [10]), the AchE staining intensity is 8,470±199 IDV and the NADPH staining intensity is listed as 10,126±187 IDV. Further, the “FIBER LENGTH (average lengths of the growing fibers)” value in [4] (48 hours after culturing) is on record as 89. For the same substance, the “effect on migration of VSMC” value in the assay on VSMC (aorta SMC) [5] was “stimulated migration”. Moreover, in assay [6], the “Drop Rate in 1 min.” value was 17.4 cm H2O and 17.4(+/−24) cm H2O; the “Flaccid ICP” value came to 25.3 cm H2O; the “ICP After Papavarine” value is 84 cm H2O and 83.9 cm H2O; the “Maintenance Rate” value is 0.08 ml/min and 0.08(+/−0.15) ml/min. Besides, the maximal intracavernous pressure in [7] is 72.78±10.87 cm H2O. For the same substance, the “effect on growth of VSMC” value with VSMC (aorta SMC) [8] is “did not stimulate growth”. Also, the “cell growth in artery-muscle co-culture” value in [9] is recorded as “encourage the growth of endothelial cells”.
